Test results published in article PMC9972471, “Calamene-Type Sesqui-, Mero-, and Bis-sesquiterpenoids from Cultures of Heimiomyces sp., a Basidiomycete Collected in Africa” (Journal of Natural Products, 2023).
≈ marks a conversion by molar mass, not a printed value. Like-named read-outs stand apart in the source and are kept apart here.

Columns and labels:
Type in all cases: cell-based
[1] = test system: Rhodotorula glutinis DSM 10134; assay: Serial dilution assay, MIC; settings: for MIC: DSM10134, - = no inhibition was observed, read-out: Minimum inhibitory concentration (MIC)
Protocol: (§1) Figure S3. ECD spectra of 7 .
(§2) Eval uation of anti mi cr obi al acti vity.
(§3) To assess the antimicrobial activity of each compound, a serial dilution assay to ascertain their minimum inhibitory concentration (MIC) against sever al yeast, fungal and bacterial strains was c arried out in 96-well micr otiter plates, as previously described by Har ms et al.
(§4) Table S1. Minimum inhibitory concentration (MIC in µg/mL) for yeast, bacterial and fungal strains.
(§5) The serial dilution assay was performed using 1 mg/mL stock solutions of 1 -8, 13, 15 and 16. As positive control the antimicrobials [ O] Oxytetracyclin , [ G] Gentamycin and [ K] Kanamycin wer e used for bacteria and [N] Nystatin was used for filamentous fungi and yeast.
(§6) (DSM 70572), Pichia anomala (DSM 6766), Candida albicans (DSM 1665), Escherichia coli (DSM 1116), Mycobacterium smegmatis (ATCC 700084), Pseudomonas aeruginosa (DSM PA14), Chromobacterium violaceum (DSM 30191) and Acinetobacter baumannii (DSM 30008).
(§7) (1 picture or pasted object on this page, not shown here)

[2] = test system: Mucor hiemalis DSM 2656; assay: Serial dilution assay, MIC
Protocol: as §1, §2, §3, §4, §5, §6, §7

[3] = test system: Staphylococcus aureus DSM 346; assay: Serial dilution assay, MIC; settings: for MIC: Staphylococcus aureus, DSM346, read-out: Minimum inhibitory concentration (MIC)
Protocol: as §1, §2, §3, §4, §5, §6, §7

[4] = test system: Bacillus subtilis DSM 10; assay: Serial dilution assay, MIC; settings: for MIC: DSM10, - = no inhibition was observed, read-out: Minimum inhibitory concentration (MIC)
Protocol: as §1, §2, §3, §4, §5, §6, §7

[5] = test system: cervix carcinoma cell line KB3.1; assay: In vitro cytotoxicity assay; settings: Homo sapiens, KB 3-1, - = no activity, read-out: Half inhibitory concentration (IC50)
Protocol: (§8) Eval uation of cytot ox icity.
(§9) Assessment of in vitro cytotoxicity was performed in 96-well plates, as previously published by Harms et al against the
(§10) mouse fibroblast cell line L929 and the cervix car cinoma cell line KB3.1. […]
(§11) Table S2. Half inhibitory concentration (IC50 i n µM ) .
(§12) The cytotoxicity assay was performed using 1 mg/mL stock solutions of 1 -8 , 13 , 15 and 16. Epo thilon B was tested as positive

[6] = test system: mouse fibroblast cell line L929; assay: In vitro cytotoxicity assay; settings: - = no activity, read-out: Half inhibitory concentration (IC50)
Protocol: as §8, §9, §10, §11, §12

[7] = test system: human lung carcinoma cell line A549; assay: Extended cytotoxicity assay; settings: read-out: Half inhibitory concentration (IC50)
Protocol: as §8
(§13) Assessment of in vitro cytotoxicity was performed in 96-well plates, as previously published by Harms et al against the mouse fibroblast cell line L929 and the cervix car cinoma cell line KB3.1. Heimiomycin D (5 ) was additionally tested against human breast carcinoma cell line MCF-7, human lung carcinoma cell line A549, human ovarian carcinoma cell line SKOV -3, human prostate carcinoma cell line P C-3 and human epidermoid carcinoma cell line A431.
as §11
(§14) The cytotoxicity assay was performed using 1 mg/mL stock solutions of 1 -8 , 13 , 15 and 16. Epo thilon B was tested as positive […]
(§15) IC50 in µM; - no activity
(§16) Table S3. Half inhibitory concentration (IC50 in µM) of 5 .
(§17) The extended cytotoxicity assay against further cell lines was performed using a 1 mg/mL stock solution of 5 . Epothilon B was tested as positive control.
(§18) Hei mio my cin D (5) Epo B

[8] = test system: human prostate carcinoma cell line PC-3; assay: Extended cytotoxicity assay; settings: read-out: Half inhibitory concentration (IC50)
Protocol: as §8, §13, §11, §14, §15, §16, §17, §18

[9] = test system: human ovarian carcinoma cell line SKOV-3; assay: Extended cytotoxicity assay; settings: SK-OV-3, read-out: Half inhibitory concentration (IC50)
Protocol: as §8, §13
(§19) Table S2. Half inhibitory concentration (IC50 i n µM ) . […]
as §16, §17, §18

[10] = test system: human breast carcinoma cell line MCF-7; assay: Extended cytotoxicity assay; settings: MCF7, read-out: Half inhibitory concentration (IC50)
Protocol: as §8, §13, §19, §16, §17, §18

[11] = test system: human epidermoid carcinoma cell line A431; assay: Extended cytotoxicity assay; settings: read-out: Half inhibitory concentration (IC50)
Protocol: as §8, §13, §19, §16, §17, §18

Row | Compound | MIC [4] | MIC [3] | IC50 [5] | IC50 [6] | further results
1 | C[C@@H]1[C@H](O)[C@@H](C)/C=C/C=C/CC/C=C/C=C/C=C/C=C/C(O[C@H]2O[C@H](C)[C@@H](O)[C@H](N)[C@@H]2O)CC2O[C@](O)(CC(O)C(O)CCC(O)CC(O)CC(O)CC(=O)O[C@H]1C)CC(O)C2C(=O)O (stereo partly drawn) [Nystatin, reference compound] | – | – | – | – | Minimum inhibitory concentration (MIC) ([1]; - = no inhibition was observed): 4.2 µg/mL (≈ 4.54 µM); Minimum inhibitory concentration (MIC) ([2]; - = no inhibition was observed): 8.3 µg/mL (≈ 8.96 µM)
2 | CN(C)[C@@H]1C(=O)C(C(N)=O)=C(O)[C@@]2(O)C(=O)C3=C(O)c4c(O)cccc4[C@@](C)(O)[C@H]3[C@H](O)[C@@H]12 [Oxytetracyclin, reference compound] | – | – | – | – | Minimum inhibitory concentration (MIC) ([3]; Staphylococcus aureus DSM 346, - = no inhibition was observed): 0.83 µg/mL (≈ 1.8 µM); Minimum inhibitory concentration (MIC) ([4]; - = no inhibition was observed): 8.3 µg/mL (≈ 18 µM)
3 | CC(C)[C@H]1CC[C@H](C)c2c(O)c(O)c(CO)c(C3=C(O)C(=O)C4=C(OCc5c(O)c(O)c6c(c54)[C@@H](C(C)C)CC[C@@H]6C)C3=O)c21 [compound 3, Bis-heimiomycin C] | 16.6 µg/mL (≈ 26.8 µM) | 33.3 µg/mL (≈ 53.8 µM) | 27.5 µM | 32.4 µM | –
4 | CC(C)[C@H]1CC[C@H](C)c2c(O)c(O)c3c(c21)C1=C(OC3)C(=O)C2=C(OCc3c(O)c(O)c4c(c32)[C@@H](C(C)C)CC[C@@H]4C)C1=O [compound 4, Bis-heimiomycin D] | – | – | 35 µM | – | –
5 | CC(C)[C@H]1CC[C@H](C)c2c(O)c(O)c(C=O)c(C3=C(O)C(=O)C=C(O)C3=O)c21 [compound 6, Heimiomycin E] | 16.6 µg/mL (≈ 43 µM) | 66.6 µg/mL (≈ 172 µM) | – | 57 µM | –
6 | CC(C)[C@H]1CC[C@H](C)C2=C1C=C(C(=O)O)CC2 [compound 7, Heimiocalamene A] | 66.6 µg/mL (≈ 284 µM) | 66.6 µg/mL (≈ 284 µM) | 85.5 µM | – | MIC [1]: 66.6 µg/mL (≈ 284 µM); MIC ([2]; DSM2656, - = no inhibition was observed, read-out: Minimum inhibitory concentration (MIC)): 33.3 µg/mL (≈ 142 µM)
7 | Cc1c(O)c(O)c(C(C)C)c2c1CCC(C(=O)O)=C2 [compound 8, Heimiocalamene B] | 66.6 µg/mL (≈ 254 µM) | – | 31.3 µM | 37.4 µM | MIC [1]: 66.6 µg/mL (≈ 254 µM)
8 | O=c1cc(O)cc(/C=C/c2ccc(O)c(O)c2)o1 [compound 15, hispidin] | – | – | 93.5 µM | 85.4 µM | –

The next lines start with results.

Row | MIC [4] | MIC [3] | Compound | IC50 [5] | IC50 [6] | further results
9 | 33.3 µg/mL (≈ 52.6 µM) | – | CC(C)[C@H]1CC[C@H](C)c2c(O)c(O)c(C=O)c(C3=C(O)C(=O)C(c4c(C=O)c(O)c(O)c5c4[C@@H](C(C)C)CC[C@@H]5C)=C(O)C3=O)c21 [compound 1, Bis-heimiomycin A] | – | – | MIC [1]: 66.6 µg/mL (≈ 105 µM)
10 | 16.6 µg/mL (≈ 26.9 µM) | 33.3 µg/mL (≈ 54 µM) | CC(C)[C@H]1CC[C@H](C)c2c(O)c(O)c(C=O)c(C3=C(O)C(=O)C4=C(OCc5c(O)c(O)c6c(c54)[C@@H](C(C)C)CC[C@@H]6C)C3=O)c21 [compound 2, Bis-heimiomycin B] | 30.8 µM | – | –
11 | 33.3 µg/mL (≈ 83.2 µM) | 33.3 µg/mL (≈ 83.2 µM) | CC1=C(O)C(=O)C(c2c(C=O)c(O)c(O)c3c2[C@@H](C(C)C)CC[C@@H]3C)=C(O)C1=O [compound 5, Heimiomycin D] | 6.3 µM | 45 µM | IC50 [7]: 14.3 µM; IC50 [8]: 30 µM; IC50 [9]: 3000 nM; IC50 [10]: 2500 nM; IC50 ([11]; A431): 4.3 µM; IC50 ([11]; Homo sapiens, A-431, A431): 4.25 µM
12 | 33.3 µg/mL (≈ 67.9 µM) | – | O=c1cc(O)cc(C2c3c(cc(/C=C/c4ccc(O)c(O)c4)oc3=O)OC2c2ccc(O)c(O)c2)o1 (stereo not drawn) [compound 16, hypholomin B] | – | – | –
